Experimental data taken from paper PMC3071374, “High Throughput Screens Yield Small Molecule Inhibitors of Leishmania CRK3:CYC6 Cyclin-Dependent Kinase” (PLoS Neglected Tropical Diseases, 2011).
Like-named read-outs stand apart in the source and are kept apart here.

Tests used:
[1] = biological target: CDK4:CYCD1 (Homo sapiens, UniProt P11802); assay: Mammalian protein kinase assay, CDK4:CYCD1; type: biochemical; settings: Lexicon azapurine HTS hits
Description: (§1) Leishmania CRK3:CYC6 protein kinase assays were performed in 96-well microtiter plates in a final volume of 25 µl. Each assay point contained 7.5 ng of co-expressed histidine-tagged CRK3:CYC6 protein kinase complex (hereafter referred to as CRK3:CYC6) diluted in enzyme dilution buffer (EDB) (20 mM Tris-HCl pH 7.2, 0.5 mg ml^−1 BSA, 2.5% glycerol and 0.006% Brij-35). Assays were performed using the assay development buffer (ADB) (20 mM MOPS, pH 7.0, 25 mM β-glycerophosphate, 5 mM EGTA, 1 mM NaVO3, 1 mM DTT and 15 mM MgCl2) supplemented with 100 µM ATP, 0.5 µCi of γ-^32P ATP per reaction and histone H1 as a substrate used at 0.4 mg ml^−1. Two and three-fold titrations were set up to determine the concentration of enzyme to be used per assay point (7.5 ng) and to determine the concentrations of selected inhibitors required for 50% inhibition of Leishmania CRK3:CYC6 protein kinase activity (IC50 values), respectively. For IC50 determinations, assay mixes contained DMSO to a final concentration of 2%. Mammalian protein kinase assays were carried out according to the assay protocols developed at Cyclacel. Assays were carried out for 30 minutes at 30°C before stopping the reaction by the addition of an equal volume (25 µl) of 75 mM orthophosphoric acid. Samples were spotted onto a p81 cellulose filterplate (Nunc) and a vacuum applied. Wells were washed 3×200 µl with 75 mM phosphoric acid and the bottom of the plate sealed. 50 µl of Microscint 40 (Perkin Elmer) was added per well before incorporation of radioactivity was determined on a Topcount microplate scintillation counter.

[2] = test system: WT amastigote L. major; assay: Intra-macrophage L. major amastigote assay; type: cell-based; settings: for IC50: read-out: IC50 against WT amastigote L. major
Description: Macrophages were harvested from the peritoneum of Balb/C mice, centrifuged at 1000× g for 10 minutes at 4°C and resuspended in fresh RPMI 1640 media supplemented with 10% HIFCS and 1% (v/v) Gentamicin, as described previously. Macrophages were diluted to a cell density of 5×10^5 cells ml^-1 in RPMI supplemented with 10% HIFCS and 100 μl were added to each well of a 16-well Lab-tek cavity slide (50,000 mφ/well) and incubated at 37°C, 5% CO2 for subsequent experiments. […] Inhibitors were set up in a five-fold dilution series in RPMI 1640 medium supplemented with 10% […] of inhibitor were added to the wells in serial dilution and slides incubated for 72 hours at 37°C with 5% CO2. After 72 hours the medium was removed and replaced with fresh medium containing the same concentrations of inhibitors and incubated for a further 48 hours at 37°C with 5% CO2. At the end of the incubation period, the medium was removed, the slides were washed twice with fresh RPMI 1640 medium supplemented with 10% HIFCS then fixed with 100% methanol and stained with 10% Giemsa's stain for 10 minutes. The percentage of infected macrophages and number of amastigotes per macrophage were determined by light microscopy under oil immersion.

[3] = biological target: Leishmania CRK3:CYC6 (Leishmania major, UniProt O96526); type: biochemical
Description: as §1

[4] = test system: WT promastigote L. major; assay: L. major promastigote growth inhibition assay (resazurin); type: cell-based; settings: for IC50: 5 days at 25°C, read-out: IC50 against WT promastigote L. major
Description: L. major wild type promastigotes (Friedlin strain: WHO designation MHOM/JL/81/Friedlin) were grown at 25°C in HOMEM medium (Invitrogen cat no. 041-94699111) supplemented with 10% (v/v) heat inactivated foetal calf serum (HIFCS) and 1% (v/v) penicillin/streptomycin antibiotics.
CRK3 inhibitors were diluted into HOMEM medium supplemented with 10% HIFCS at twice the final screening concentration. Five-fold or ten-fold serial dilutions were carried out into HOMEM medium supplemented with 10% HIFCS. 100 µl of each drug concentration were added to a 96 well plate in duplicate. 100 µl of five-fold or ten-fold serial dilutions of 1 mM Pentamidine (Sigma) and an equivalent volume of 100% DMSO were included as positive and negative controls, in duplicate, respectively. L. major promastigote cells were diluted to a cell density of 2×10^6 cells ml^−1 in HOMEM media supplemented with 10% HIFCS and 100 µl added to all wells in 96 well plates. Plates were sealed with parafilm and incubated for 5 days at 25°C. After 5 days, 20 µl of filter sterile resazurin solution (12.5 mg resazurin salt in 100 ml PBS) (Sigma) was added to each of the wells and the plate incubated for a further 24 hours at 25°C. Fluorescence was measured using an Envision plate reader (Perkin Elmer) at 540 nm excitation wavelength and 590 nm emission wavelength.

[5] = Lexicon azapurine HTS hits, infected peritoneal macrophages
[6] = re-synthesised Lexicon azapurine hits
[7] = Lexicon azapurine HTS hits, maximum concentration tested 10 µM
[8] = synthesised azapurine derivatives
[9] = synthesised azapurine derivatives, infected peritoneal macrophages

CDK4:CYCD1, sequence (P11802 whole entry): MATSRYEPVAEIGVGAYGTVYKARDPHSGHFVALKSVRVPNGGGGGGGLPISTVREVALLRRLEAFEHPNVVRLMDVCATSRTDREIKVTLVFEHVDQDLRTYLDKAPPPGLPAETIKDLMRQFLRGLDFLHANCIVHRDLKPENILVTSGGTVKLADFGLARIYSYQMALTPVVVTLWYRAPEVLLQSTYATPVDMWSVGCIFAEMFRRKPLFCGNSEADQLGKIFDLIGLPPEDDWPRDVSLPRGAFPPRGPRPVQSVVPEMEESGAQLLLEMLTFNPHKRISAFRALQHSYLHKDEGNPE
CDK4:CYCD1, sequence (P24385 whole entry partner): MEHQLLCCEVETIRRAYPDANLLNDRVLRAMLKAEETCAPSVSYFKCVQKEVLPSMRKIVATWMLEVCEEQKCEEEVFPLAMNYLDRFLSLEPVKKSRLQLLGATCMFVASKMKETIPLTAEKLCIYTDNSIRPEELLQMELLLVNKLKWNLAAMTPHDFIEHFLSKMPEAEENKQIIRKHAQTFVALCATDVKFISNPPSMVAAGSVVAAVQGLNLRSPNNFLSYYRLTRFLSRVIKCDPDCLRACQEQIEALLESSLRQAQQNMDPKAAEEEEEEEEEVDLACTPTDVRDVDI
Leishmania CRK3:CYC6, sequence (Q4Q4U0 entry or part of it): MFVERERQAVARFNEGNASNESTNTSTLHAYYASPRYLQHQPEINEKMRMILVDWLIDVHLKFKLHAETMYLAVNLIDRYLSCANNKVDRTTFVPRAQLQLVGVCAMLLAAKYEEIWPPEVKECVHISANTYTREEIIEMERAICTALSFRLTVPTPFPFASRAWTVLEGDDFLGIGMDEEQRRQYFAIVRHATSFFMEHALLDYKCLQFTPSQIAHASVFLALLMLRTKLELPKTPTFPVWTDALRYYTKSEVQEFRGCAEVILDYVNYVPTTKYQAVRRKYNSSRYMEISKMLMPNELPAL
Leishmania CRK3:CYC6, sequence (O96526 entry or part of it): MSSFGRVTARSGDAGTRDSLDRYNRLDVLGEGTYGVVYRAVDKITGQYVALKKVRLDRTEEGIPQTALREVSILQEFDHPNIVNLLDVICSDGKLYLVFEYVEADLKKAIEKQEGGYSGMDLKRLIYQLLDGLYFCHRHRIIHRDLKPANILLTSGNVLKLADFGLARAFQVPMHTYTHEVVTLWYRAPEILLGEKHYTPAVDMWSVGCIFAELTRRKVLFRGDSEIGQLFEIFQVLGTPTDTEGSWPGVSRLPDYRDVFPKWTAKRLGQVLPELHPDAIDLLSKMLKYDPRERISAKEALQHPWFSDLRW

Row | SMILES | IC50 [1] | IC50 [2, 5] | IC50 ([3]; Lexicon azapurine HTS hits) | IC50 [4, 7] | also measured
1 | COc1ccc(-n2nnc3c(N4CCCC(O)C4)nc(CC4CCCCC4)nc32)cc1 (racemic) [Compound 5] | 9.7 µM | > 50 µM | 5.3 µM | 8.6 µM | activity towards the amastigote life cycle stage (in words) [2]: no activity; IC50 [3, 6]: 4.2 µM
2 | COc1ccc(Cn2nnc3c(N4CCCC(O)C4)nc(CC4CCCCC4)nc32)cc1 (racemic) [Compound 19] |  |  |  |  | IC50 [3, 8]: > 50 µM; activity towards promastigote L. major (in words) [4]: showed a range of activity; IC50 [4, 8]: 5 to 50 µM
3 | COc1ccc(-n2nnc3c(N4CCCC(O)C4)nc(Cc4ccccc4)nc32)cc1 (racemic) [Compound 29] |  |  |  |  | activity against amastigotes (in words) [2, 9]: Activity observed at 25 μM; inhibition of CRK3/CYC6 in vitro (in words) [3]: did not inhibit; IC50 [3, 8]: > 100 µM; activity towards promastigote L. major (in words) [4]: showed a range of activity; inhibition of parasite growth in culture (in words) ([4]; promastigotes and intra-macrophage amastigotes in culture): inhibited parasite growth in culture; IC50 [4, 8]: 38.7 µM
4 | OC1CCCN(c2nc(CC3CCCCC3)nc3c2nnn3Cc2ccc(F)cc2)C1 (racemic) [Compound 33] |  |  |  |  | IC50 [2, 9]: > 50 µM; IC50 [3, 8]: 47.6 µM; IC50 [4, 8]: > 50 µM
5 | COc1ccc(-n2nnc3c(N(C)CCN(C)C4c5ccccc5CC4O)nc(CC4CCCCC4)nc32)cc1 (stereo not drawn) [Compound 1] | 12.5 µM | > 50 µM | 2.6 µM | > 10 µM | 
6 | CCCN(c1nc(CC2CCCCC2)nc2c1nnn2-c1ccc(OC)cc1)C1CCCC1N(C)C (stereo not drawn) [Compound 2] | 5.6 µM | 38.4 µM | 3.4 µM | > 10 µM | activity towards promastigote L. major (in words) [4]: did not have activity
7 | COc1ccc(-n2nnc3c(NCC(C)O)nc(CC4CCCCC4)nc32)cc1 (stereo not drawn) [Compound 3] | 21.9 µM | > 50 µM | 4.4 µM | > 10 µM | IC50 [3, 6]: 24.2 µM
8 | COc1ccc(-n2nnc3c(N(C)C4COCC4N(C)C)nc(CC4CCCCC4)nc32)cc1 (stereo not drawn) [Compound 4] | 10.3 µM | > 50 µM | 4.4 µM | > 10 µM | 
9 | COc1ccc(-n2nnc3c(N4CCCC(CO)C4)nc(CC4CCCCC4)nc32)cc1 (stereo not drawn) [Compound 6] | 9.2 µM | > 50 µM | 6.9 µM | > 10 µM | IC50 [3, 6]: 4.4 µM
10 | COc1ccc(-n2nnc3c(N(C)C(CN4CCCCC4)c4ccccc4)nc(CC4CCCCC4)nc32)cc1 (stereo not drawn) [Compound 7] | 19.5 µM |  | 7.8 µM |  | 
11 | CCC(CC)Nc1nc(CC2CCCCC2)nc2c1nnn2-c1ccc(OC)cc1 [Compound 8] | 26.9 µM |  | 8.1 µM |  | 
12 | COc1ccc(-n2nnc3c(NC(C)C)nc(CC4CCCCC4)nc32)cc1 [Compound 9] | 19.8 µM |  | 8.8 µM |  | IC50 [3, 6]: 37.9 µM
13 | COc1ccc(-n2nnc3c(NC(Cc4ccccc4)Cn4nc(C)cc4C)nc(CC4CCCCC4)nc32)cc1 (stereo not drawn) [Compound 10] | 7.3 µM |  | 10.1 µM |  | 
14 | COc1ccc(-n2nnc3c(N4CC(N5CCN(c6ccccn6)CC5)C4)nc(CC4CCCCC4)nc32)cc1 [Compound 11] | 6.7 µM |  | 10.3 µM |  | 
15 | COc1ccc(-n2nnc3c(NC(CO)CC(C)C)nc(CC4CCCCC4)nc32)cc1 (stereo not drawn) [Compound 12] | 4.6 µM |  | 10.7 µM |  | 
